Measurements: ChEMBL document CHEMBL3039007, “Structure-based identification of OATP1B1/3 inhibitors” (Mol Pharmacol, 2013)
Values joined by “and” are separate entries in the source; they are usually repeats but may differ in a detail not shown here. Equal values may be shown once.

Assays:
[1] = biological target: T1, Solute carrier organic anion transporter family member 1B1 (Homo sapiens, UniProt Q9Y6L6)
T1 sequence (Q9Y6L6 whole entry): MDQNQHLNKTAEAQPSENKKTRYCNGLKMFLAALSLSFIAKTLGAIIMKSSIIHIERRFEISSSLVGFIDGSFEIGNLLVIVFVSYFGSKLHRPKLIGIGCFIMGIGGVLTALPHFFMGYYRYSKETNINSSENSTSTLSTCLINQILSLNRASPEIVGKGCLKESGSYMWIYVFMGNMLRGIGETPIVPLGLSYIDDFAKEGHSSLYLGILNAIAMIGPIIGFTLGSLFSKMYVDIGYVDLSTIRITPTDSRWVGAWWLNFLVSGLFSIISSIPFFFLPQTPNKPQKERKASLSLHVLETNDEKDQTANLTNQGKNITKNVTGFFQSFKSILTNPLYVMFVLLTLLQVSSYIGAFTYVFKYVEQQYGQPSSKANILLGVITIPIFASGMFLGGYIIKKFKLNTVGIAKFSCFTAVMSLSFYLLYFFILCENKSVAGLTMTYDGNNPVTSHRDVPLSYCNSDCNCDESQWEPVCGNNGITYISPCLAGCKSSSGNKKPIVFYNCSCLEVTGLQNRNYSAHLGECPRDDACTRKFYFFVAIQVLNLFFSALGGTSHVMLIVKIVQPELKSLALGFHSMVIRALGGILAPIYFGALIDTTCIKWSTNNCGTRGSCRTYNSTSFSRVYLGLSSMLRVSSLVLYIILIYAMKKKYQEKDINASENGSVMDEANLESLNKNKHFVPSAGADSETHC

[2] = biological target: T1, Solute carrier organic anion transporter family member 1B1; remark: listed apart in the source
[3] = biological target: T2, Solute carrier organic anion transporter family member 1B3 (Homo sapiens, UniProt Q9NPD5)
T2 sequence (Q9NPD5 whole entry): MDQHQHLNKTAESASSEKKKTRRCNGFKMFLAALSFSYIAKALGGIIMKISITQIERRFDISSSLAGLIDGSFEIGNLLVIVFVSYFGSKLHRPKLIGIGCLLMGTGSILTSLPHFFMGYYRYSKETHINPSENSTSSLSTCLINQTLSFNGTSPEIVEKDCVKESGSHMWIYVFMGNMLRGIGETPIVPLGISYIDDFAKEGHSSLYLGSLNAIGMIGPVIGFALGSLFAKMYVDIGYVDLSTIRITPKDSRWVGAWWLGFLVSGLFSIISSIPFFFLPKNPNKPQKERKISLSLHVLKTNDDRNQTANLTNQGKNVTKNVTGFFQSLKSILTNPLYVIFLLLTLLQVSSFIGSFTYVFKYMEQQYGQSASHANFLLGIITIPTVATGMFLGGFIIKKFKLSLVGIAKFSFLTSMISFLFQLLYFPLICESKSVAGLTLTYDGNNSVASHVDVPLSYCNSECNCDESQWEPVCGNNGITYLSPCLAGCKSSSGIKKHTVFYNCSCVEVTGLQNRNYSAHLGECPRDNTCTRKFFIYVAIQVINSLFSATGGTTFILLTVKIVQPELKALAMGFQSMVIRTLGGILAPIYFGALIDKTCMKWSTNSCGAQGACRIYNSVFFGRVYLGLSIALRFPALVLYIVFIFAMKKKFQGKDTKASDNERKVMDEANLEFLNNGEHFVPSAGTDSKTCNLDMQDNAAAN

[4] = biological target: T2, Solute carrier organic anion transporter family member 1B3; remark: listed apart in the source
[5] = biological target: T1, Solute carrier organic anion transporter family member 1B1; conditions: chinese hamster, cho, 10 µM
[6] = biological target: T2, Solute carrier organic anion transporter family member 1B3; conditions: chinese hamster, cho, 10 µM

Row | IC50 [1] [µM] | IC50 [3] [µM] | residual activity [5] | residual activity [6] [%] | Structure (SMILES) | Ki [2] [µM] | Ki [4] [µM]
1 | 0.977 | 0.977 | 15.39% | 9.702 | CCCc1nc(C(C)(C)O)c(C(=O)OCc2oc(=O)oc2C)n1Cc1ccc(-c2ccccc2-c2nnn[nH]2)cc1 [OLMESARTAN MEDOXOMIL] | 0.54 | 0.75
2 | 1.32 | 3.39 | 15.29% | 32.05 | C=CC1=C(C)/C(=C/c2[nH]c(Cc3[nH]c(/C=C4\NC(=O)C(C)=C4C=C)c(C)c3CCC(=O)O)c(CCC(=O)O)c2C)NC1=O [BILIRUBIN] | 0.72 | 2.63
3 | 6.17 | 4.27 | 54.77% | 46.89 | COc1cc(C2Oc3cc([C@H]4Oc5cc(O)cc(O)c5C(=O)[C@@H]4O)ccc3OC2CO)ccc1O (some centres not stated) [SILIBININ] | 3.37 | 3.27
4 | 11.2 | 11.5 | 19.79% | 5.189 | CC(=O)O[C@H]1CC[C@]2(C)[C@H]3C(=O)C=C4[C@@H]5[C@@H](C)[C@H](C)CC[C@]5(C(=O)O)CC[C@@]4(C)[C@]3(C)CC[C@H]2C1(C)C [11-OXOURSOLIC ACID ACETATE] |  | 
5 | 11.7 |  | 63.53% | 25.61 | N[C@@H](C(=O)O)[C@@H](O)[C@H](O)[C@H](O)CO [GLUCOSAMINIC ACID] |  | 
6 | 4.07 | 7.08 | 56.21% | 71.16 | Cc1ccc(C)c(OCCCC(C)(C)C(=O)O)c1 [GEMFIBROZIL] |  | 
7 | 3.09 | 3.31 | 56.72% | 80.47 | CC[C@H]1OC(=O)[C@H](C)[C@@H](O[C@H]2C[C@@](C)(OC)[C@@H](O)[C@H](C)O2)[C@H](C)[C@@H](O[C@@H]2O[C@H](C)C[C@H](N(C)C)[C@H]2O)[C@](C)(OC)C[C@@H](C)C(=O)[C@H](C)[C@@H](O)[C@]1(C)O [CLARITHROMYCIN] |  | 
8 | 1.7 | 3.24 | 20.54% | 23.84 | CC(=O)O[C@@H]1C[C@H]2C(C)(C)[C@@H](O)CC[C@]2(C)[C@H]2CC[C@@]3(C)[C@H](c4ccoc4)OC(=O)[C@H]4O[C@]43[C@@]21C [beta-DIHYDROGEDUNOL] |  | 
9 | 3.47 | 5.89 | 62.01% | 60.1 | CC[C@H]1OC(=O)[C@H](C)C(=O)[C@H](C)[C@@H](O[C@@H]2O[C@H](C)C[C@H](N(C)C)[C@H]2O)[C@](C)(OC)C[C@@H](C)C(=O)[C@H](C)[C@H]2N(CCCCn3cnc(-c4cccnc4)c3)C(=O)O[C@]12C [TELITHROMYCIN] |  | 

Row | Structure (SMILES) | IC50 [1] [µM] | IC50 [3] [µM] | residual activity [5] | residual activity [6] [%] | Ki [2] [µM] | Ki [4] [µM]
10 | CCC(C)C(=O)O[C@@H]1C[C@@]2(C)[C@H](c3ccoc3)OC(=O)CC23OC2(C)O[C@]14[C@]1(C)[C@@H](CC(=O)OC)C5(C)CC1(O)[C@](O)(C5OC(=O)C1(C)OC1C)[C@@H](OC(C)=O)[C@]34O2 (some centres not stated) [UTILIN] | 0.676 | 0.776 | -3.778% | 2.658 | 0.38 | 0.6
11 | COC(=O)CC[C@@H](C)[C@H]1CC[C@H]2[C@@H]3[C@H](O)C[C@@H]4C[C@H](O)CC[C@]4(C)[C@H]3C[C@H](O)[C@]12C [CHOLIC ACID, METHYL ESTER] | 8.32 | 3.72 | 26.02% | 40.87 | 4.58 | 2.89
12 | CC1(C)C(=O)[C@@H]2O[C@@H]2[C@]2(C)[C@H]3CC[C@@]4(C)[C@H](c5ccoc5)OC(=O)[C@H]5O[C@]54[C@]3(C)[C@H](O)C[C@@H]12 | 1.58 | 2.95 | 12.73% | 21.3 |  | 
13 | Cc1cc2c(C(C)C)c(O)c(O)c(C=O)c2c(O)c1-c1c(C)cc2c(C(C)C)c(O)c(O)c(C=O)c2c1O [GOSSYPOL] | 3.24 | 4.57 | 24.45% and 68.48% |  | 1.78 | 3.47
